# Results: patent publication US12428406B2 (PMV Pharmaceuticals, Inc., priority 2019, dated 2025)
# Target: T1, p53 Y220C (Homo sapiens, UniProt P04637, Y220C)
# T1 construct: The recombinant protein was a truncation mutant containing only amino acids 94-312 of p53; made in house; host or cells: E. coli
# Assay: In vitro DNA binding activity assay (HTRF / TR-FRET): stabilization of p53 Y220C and increase of its DNA binding activity
# Format: biochemical
# Conditions: recombinant His-tagged p53 Y220C DNA binding domain (aa 94-312), biotin-labeled consensus DNA, incubated at 27° C. or 29° C. for 60 min
# Summary of the method: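 Test compounds, diluted 3-fold in DMSO from 4.5 mM stocks, were incubated with bacterially expressed His-tagged p53 Y220C at room temperature for 15 min, and after a further step for 20 min. DNA binding was detected by time-resolved FRET between APC and europium labels. SC150 marks the concentration increasing binding by 50%.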
# T1 sequence (P04637 94-312, change not shown): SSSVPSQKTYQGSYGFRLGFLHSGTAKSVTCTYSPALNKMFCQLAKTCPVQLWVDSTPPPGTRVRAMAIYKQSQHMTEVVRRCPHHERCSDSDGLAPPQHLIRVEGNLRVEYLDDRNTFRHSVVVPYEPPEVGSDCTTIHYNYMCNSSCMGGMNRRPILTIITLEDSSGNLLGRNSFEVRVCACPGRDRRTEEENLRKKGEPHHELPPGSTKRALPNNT
row,Structure (SMILES),SC150 (concentration of the compound required to increase the DNA binding activity by 50%)
1,"CNC(=O)c1ccc(NCC#Cc2cc3c(N[C@H]4CC[C@H](N5CC6(COC6)C5)CC4)cccc3n2CC(F)(F)F)c(OCCF)c1 [Compound 240A, 3-(2-fluoroethoxy)-N-methyl-4-{[3-(4-{[(1R,4R)-4-{2-oxa-6-azaspiro[3.3]heptan-6-yl}cyclohexyl]amino}-1-(2,2,2-trifluoroethyl)-1H-indol-2-yl)prop-2-yn-1-yl]amino}benzamide]",+ (+ = 0 μM ≤ SC150 < 0.05 μM)
2,"COC[C@H](O)CN1CCC(Nc2cccc3c2cc(C#CCNc2ccc(S(C)(=O)=O)cc2OC)n3CC(F)(F)F)CC1 [Compound 611A, (2R)-1-{4-[(2-{3-[(4-methanesulfonyl-2-methoxyphenyl)amino]prop-1-yn-1-yl}-1-(2,2,2-trifluoroethyl)-1H-indol-4-yl)amino]piperidin-1-yl}-3-methoxypropan-2-ol]",+ (+ = 0 μM ≤ SC150 < 0.05 μM)
3,"CCN1CC[C@H](Nc2cccc3c2cc(C#CCNc2ccc(S(C)(=O)=O)cc2OC)n3CC(F)(F)F)[C@H](F)C1 (racemic) [Compound 820A, rac-N-[(3R,4S)-1-ethyl-3-fluoropiperidin-4-yl]-2-{3-[(4-methanesulfonyl-2-methoxyphenyl)amino]prop-1-yn-1-yl}-1-(2,2,2-trifluoroethyl)-1H-indol-4-amine]",+ (+ = 0 μM ≤ SC150 < 0.05 μM)
4,"COc1cc(S(C)(=O)=O)ccc1NCC#Cc1cc2c(N[C@@H]3CCN(C)C[C@H]3F)cccc2n1CC(F)(F)F (racemic) [Compound 769A, (rac)-N-((3R,4R)-3-fluoro-1-methylpiperidin-4-yl)-2-(3-((2-methoxy-4-(methylsulfonyl)phenyl)amino)prop-1-yn-1-yl)-1-(2,2,2-trifluoroethyl)-1H-indol-4-amine]",+ (+ = 0 μM ≤ SC150 < 0.05 μM)
5,"COc1cc(C(=O)N2CCC(N(C)C)CC2)ccc1NCC#Cc1cc2c(NC3CCN(C)CC3)cccc2n1CC(F)(F)F [Compound 499A, 2-[3-({4-[4-(dimethylamino)piperidine-1-carbonyl]-2-methoxyphenyl}amino)prop-1-yn-1-yl]-N-(1-methylpiperidin-4-yl)-1-(2,2,2-trifluoroethyl)-1H-indol-4-amine]",+ (+ = 0 μM ≤ SC150 < 0.05 μM)
6,"COc1cc(C(=O)NCC(COC(=O)C(C)C)OC)ccc1NCC#Cc1cc2c(N[C@@H]3CCN(C)C[C@@H]3F)cccc2n1CC(F)(F)F (stereo partly drawn) [Compound 1061A, 3-[(4-{[3-(4-{[(3S,4R)-3-fluoro-1-methylpiperidin-4-yl]amino}-1-(2,2,2-trifluoroethyl)-1H-indol-2-yl)prop-2-yn-1-yl]amino}-3-methoxyphenyl)formamido]-2-methoxypropyl 2-methylpropanoate]",+ (+ = 0 μM ≤ SC150 < 0.05 μM)
7,"COc1cc(C(N)=O)ccc1NCC#Cc1cc2c(N[C@H]3CC[C@H](N4CC5(CCOCC5)C4)CC3)cccc2n1CC(F)(F)F [Compound 331A, 3-methoxy-4-{[3-(4-{[(1R,4R)-4-{7-oxa-2-azaspiro[3.5]nonan-2-yl}cyclohexyl]amino}-1-(2,2,2-trifluoroethyl)-1H-indol-2-yl)prop-2-yn-1-yl]amino}benzamide]",+ (+ = 0 μM ≤ SC150 < 0.05 μM)
8,"COc1cc(S(C)(=O)=O)ccc1NCC#Cc1cc2c(N[C@H]3CC[C@H](N4CCC5(CCOCC5)CC4)CC3)cccc2n1CC(F)(F)F [Compound 414A, 2-{3-[(4-methane-sulfonyl-2-methoxy-phenyl)amino]prop-1-yn-1-yl}-N-[(1R,4R)-4-{3-oxa-9-azaspiro[5.5]undecan-9-yl}cyclohexyl]-1-(2,2,2-trifluoroethyl)-1H-indol-4-amine]",+ (+ = 0 μM ≤ SC150 < 0.05 μM)
